Earlier results as cited in PubChem BioAssay AID1259409 (Chemical Carcinogenesis Research Information System (CCRIS), 2018).

Test system: rodent chemically induced tumor inhibition, incidence and multiplicity
Assay: CCRIS tumor inhibitor studies
Conditions: for outcome: Carcinogen: 3-METHYL-4-DIMETHYLAMINOAZOBENZENE [3732-90-9], 10, 40, 80 MG/KG BW DAILY FOR 16 WK, Route [Inhibitor]: ORAL (GAVAGE), Dose [Carcinogen]: 0.06% FOR 16 WK

For `CC1=C(/C=C/C(C)=C/C=C/C(C)=C\C(=O)NCCO)C(C)(C)CCC1`, the “tumour outcome (control, treated, inhibition, significance)” value (Carcinogen: N-BUTYL-N-(4-HYDROXYBUTYL)NITROSAMINE, 3817-11-6, Dose [Inhibitor]: 1.5 MMOL/KG DIET DAILY FOR 159 D STARTING 1 WK AFTER THE FINAL CARCINOGEN DOSE (STUDY DURATION: 216 D), Route [Inhibitor]: ORAL, Species: MOUSE, Strain/Sex: DBF1/MALE, Target Tissue: Type of Lesion: URINARY BLADDER: TRANSITIONAL CELL CARCINOMA, Dose [Carcinogen]: 7.5 MG 1/WK FOR 8 WK, Promoter: NONE USED) is given as 29/98 (30%), 16/97 (17%), 43%, p<0.05 and the “tumour outcome (control, treated, inhibition, significance)” value (Carcinogen: N-BUTYL-N-(4-HYDROXYBUTYL)NITROSAMINE, 3817-11-6, Dose [Inhibitor]: 1.5 MMOL/KG IN DIET FOR 159 D STARTING 1 WK AFTER LAST CARCINOGEN DOSE (STUDY DURATION: 216 D), Route [Inhibitor]: ORAL, Species: MOUSE, Strain/Sex: BDF/MALE, Target Tissue: Type of Lesion: URINARY BLADDER: TRANSITIONAL CELL CARCINOMA, Dose [Carcinogen]: 7.5 MG 1/WK FOR 8 WK, Promoter: NONE USED) is given as 29/98 (30%), 16/97 (17%), 43%, p<0.05.
In the case of `COc1cc2ccc(=O)oc2cc1O`, the “tumour outcome (control, treated, inhibition, significance)” value (Carcinogen: 7,12-DIMETHYLBENZ[A]ANTHRACENE, 57-97-6, Dose [Inhibitor]: 0.068 MMOL/G IN DIET FOR 8 D BEGINNING 1 WK PRIOR TO CARCINOGEN DOSE (STUDY DURATION: 23 WK), Route [Inhibitor]: ORAL, Species: RAT, Strain/Sex: SPRAGUE-DAWLEY/FEMALE, Target Tissue: Type of Lesion: MAMMARY GLAND: TUMOR, Dose [Carcinogen]: 12 MG IN 1.0 ML OLIVE OIL ONCE, Promoter: NONE USED) is listed as 100%, 78%, 22%, not significant and the “tumour outcome (control, treated, inhibition, significance)” value (Carcinogen: BENZO[A]PYRENE, 50-32-8, Dose [Inhibitor]: 0.034 MMOL/G IN DIET BEGINNING 1 WK PRIOR TO FIRST CARCINOGEN DOSE AND CONTINUING FOR 3 D POST LAST CARCINOGEN DOSE FOR, Route [Inhibitor]: ORAL, Species: MOUSE, Strain/Sex: ICR/HA/FEMALE, Target Tissue: Type of Lesion: FORESTOMACH: TUMOR, Dose [Carcinogen]: 1 MG IN 0.2 ML CORN OIL 2/WK FOR 4 WK, Promoter: NONE USED) is listed as 100%, 100%, 0%, not significant.
For `CC(C)(C)c1cc(-c2cc(C(C)(C)C)c(O)c(C(C)(C)C)c2)cc(C(C)(C)C)c1O`, the “tumour outcome (control, treated, inhibition, significance)” value (Carcinogen: BENZO[A]PYRENE, 50-32-8, Dose [Inhibitor]: 0.03 MMOL/G OF DIET DAILY STARTING 7 D BEFORE AND CONTINUING THROUGH 3 D AFTER CARCINOGEN TREATMENT FOLLOWED BY OBSERVAT, Route [Inhibitor]: ORAL, Species: MOUSE, Strain/Sex: ICR/FEMALE, Target Tissue: Type of Lesion: FORESTOMACH: NEOPLASM, Dose [Carcinogen]: 1 MG IN 0.2 ML CORN OIL 2/WK FOR 4 WK, Promoter: NONE USED) is given as 90%, 89%, 1%, not significant.
In the case of `CC1(C)CCC2(C(=O)OC3OC(CO)C(O)C(O)C3O)CCC3(CO)C(=CCC4C5(C)CC(O)C(O)C(C)(C(=O)OC6OC(CO)C(O)C(O)C6O)C5CCC43C)C2C1` (configuration not stated), the “tumour outcome (control, treated, inhibition, significance)” value (Carcinogen: BENZO[A]PYRENE, 50-32-8, Dose [Inhibitor]: 0, 12.85 MG/ML IN DRINKING WATER FOR 6 WK (STUDY DURATION: 9 WK), Route [Inhibitor]: ORAL, Species: MOUSE, Strain/Sex: NIGP(S)/FEMALE, Target Tissue: Type of Lesion: LUNG: ADENOMA, Dose [Carcinogen]: 0.5 MG INJECTED IN THE SCAPULAR REGION OF NEWBORN MICE ONCE, Promoter: NONE USED) is given as 56%, 53%, 5%, not calculated and the “tumour outcome (control, treated, inhibition, significance)” value (Carcinogen: BENZO[A]PYRENE, 50-32-8, Dose [Inhibitor]: 0, 12.85 MG/ML IN DRINKING WATER FOR 6 WK (STUDY DURATION: 9 WK), Route [Inhibitor]: ORAL, Species: MOUSE, Strain/Sex: NIGP(S)/MALE, Target Tissue: Type of Lesion: LUNG: ADENOMA, Dose [Carcinogen]: 0.5 MG INJECTED IN THE SCAPULAR REGION OF NEWBORN MICE ONCE, Promoter: NONE USED) is given as 38%, 37%, 3%, not calculated.
In the case of `CCCCCC(O)CC(=O)CCC1CCC(O)C(OC)C1` (configuration not stated), the “tumour outcome (control, treated, inhibition, significance)” value (Carcinogen: AZOXYMETHANE, 25843-45-2, Dose [Inhibitor]: 0, 0.02% IN DIET IN WK 1-3 OF STUDY FOLLOWED BY BASAL DIET FOR DURATION OF STUDY (STUDY DURATION: 1 YR), Route [Inhibitor]: ORAL, Species: RAT, Strain/Sex: F344/MALE, Target Tissue: Type of Lesion: LARGE INTESTINE: ADENOCARCINOMA, Dose [Carcinogen]: 15 MG/KG BW 1/WK IN WK 1 AND 2 OF STUDY, Promoter: NONE USED) is given as 13/27 (48%), 3/17 (18%), 63%, not calculated, the “tumour outcome (control, treated, inhibition, significance)” value (Carcinogen: AZOXYMETHANE, 25843-45-2, Dose [Inhibitor]: 0, 0.02% IN DIET IN WK 1-3 OF STUDY FOLLOWED BY BASAL DIET FOR DURATION OF STUDY (STUDY DURATION: 1 YR), Route [Inhibitor]: ORAL, Species: RAT, Strain/Sex: F344/MALE, Target Tissue: Type of Lesion: LARGE INTESTINE: ADENOMA, Dose [Carcinogen]: 15 MG/KG BW 1/WK IN WK 1 AND 2 OF STUDY, Promoter: NONE USED) is given as 6/27 (22%), 5/17 (29%), -32%, not calculated and the “tumour outcome (control, treated, inhibition, significance)” value (Carcinogen: AZOXYMETHANE, 25843-45-2, Dose [Inhibitor]: 0, 0.02% IN DIET IN WK 1-3 OF STUDY FOLLOWED BY BASAL DIET FOR DURATION OF STUDY (STUDY DURATION: 1 YR), Route [Inhibitor]: ORAL, Species: RAT, Strain/Sex: F344/MALE, Target Tissue: Type of Lesion: SMALL INTESTINE: ADENOCARCINOMA, Dose [Carcinogen]: 15 MG/KG BW 1/WK IN WK 1 AND 2 OF STUDY, Promoter: NONE USED) is given as 6/27 (22%), 0/17 (0%), 100%, not calculated.
In the case of `CC(=O)OCC(=O)[C@@]1(O)CC[C@H]2[C@@H]3CCC4=CC(=O)CC[C@]4(C)[C@H]3C(=O)C[C@@]21C`, the “tumour outcome (control, treated, inhibition, significance)” value (Carcinogen: 1,2-DIMETHYLHYDRAZINE DIHYDROCHLORIDE, 306-37-6, Dose [Inhibitor]: 0, 2.5 MG/KG IN PEANUT OIL ON DAYS 1 AND 3 OF STUDY THEN 1/WK FOR 30 WK (STUDY DURATION: 31 WK), Route [Inhibitor]: SUBCUTANEOUS, Species: RAT, Strain/Sex: SPRAGUE-DAWLEY/MALE, Target Tissue: Type of Lesion: COLON: ADENOCARCINOMA, Dose [Carcinogen]: 9 MG/KG 1/WK FOR 7 WK THEN 19.4 MG/KG 1/WK FOR 13 WK, Promoter: NONE USED) is listed as 14/14 (100%), 12/13 (92%), 8%, not significant and the “tumour outcome (control, treated, inhibition, significance)” value (Carcinogen: 1,2-DIMETHYLHYDRAZINE DIHYDROCHLORIDE, 306-37-6, Dose [Inhibitor]: 0, 2.5 MG/KG IN PEANUT OIL ON DAYS 1 AND 3 OF STUDY THEN 1/WK FOR 30 WK (STUDY DURATION: 31 WK), Route [Inhibitor]: SUBCUTANEOUS, Species: RAT, Strain/Sex: SPRAGUE-DAWLEY/MALE, Target Tissue: Type of Lesion: SMALL INTESTINE: ADENOCARCINOMA, Dose [Carcinogen]: 9 MG/KG 1/WK FOR 7 WK THEN 19.4 MG/KG 1/WK FOR 13 WK, Promoter: NONE USED) is listed as 13/14 (93%), 10/13 (77%), 17%, not significant.
In the case of `O=S(=O)(O)c1ccc(S)cc1`, the “tumour outcome (control, treated, inhibition, significance)” value (Carcinogen: BETA-PROPIOLACTONE, 57-57-8, Dose [Inhibitor]: 40 UMOL IN 0.2 ML WATER 5 MIN PRIOR TO EACH CARCINOGEN DOSE (STUDY DURATION: 26 WK), Route [Inhibitor]: GAVAGE, Species: MOUSE, Strain/Sex: STRAIN-A/FEMALE, Target Tissue: Type of Lesion: FORESTOMACH: PAPILLOMA, Dose [Carcinogen]: 28 UMOL IN 0.1 ML WATER 2/WK FOR 10 WK, Promoter: NONE USED) is listed as 100%, 57%, 43%, p<0.001 and the “tumour outcome (control, treated, inhibition, significance)” value (Carcinogen: BETA-PROPIOLACTONE, 57-57-8, Dose [Inhibitor]: 70 UMOL IN 0.2 ML WATER BEGINNING 5 MIN PRIOR TO EACH CARCINOGEN DOSE (STUDY DURATION: 50 WK), Route [Inhibitor]: INTRARECTAL, Species: RAT, Strain/Sex: F344/MALE, Target Tissue: Type of Lesion: LARGE INTESTINE: ADENOMATOUS POLYP, Dose [Carcinogen]: 35 UMOL IN 0.1 ML PROPYLENE GLYCOL 2/WK FOR 6 WK, Promoter: NONE USED) is listed as 100%, 21%, 79%, p<0.001.
In the case of `CC(C)=CCC/C(C)=C/CC/C(C)=C/C=C/C(C)=C/C(=O)O`, the outcome (Dose [Inhibitor]: 0, Dose [Inhibitor]: 0, Species: RAT, Strain/Sex: F344/MALE (40,29)/(40,30)/(40,30)/(40,29), Target Tissue: Type of Lesion: LIVER: HEPATOCELLULAR CARCINOMA) is listed as “(17/29) 57%; (16/30) 53%, 9%; (4/30) 13%, 77%, p<0.05; (2/29) 7%, 89%, p<0.05” and the outcome (Dose [Inhibitor]: 0, Dose [Inhibitor]: 0, Species: RAT, Strain/Sex: F344/MALE (40,29)/(40,30)/(40/30)/(40,29), Target Tissue: Type of Lesion: LIVER: HEPATOCELLULAR ADENOMA) is listed as “(29/29) 100%; (30/30) 100%, 0%; (26/30) 86.7%, 13.3%; (24/29) 82.4%, 17.6%”.
For `CCCC/C=C\C=C/O[C@@H](CC)CCC(CCC)CCCCCCCC(=O)O[C@]1(O)[C@]2(O)O[C@H](CO[C@H]3O[C@H](CO)[C@H](O)[C@H](O)[C@H]3O)[C@H](O)[C@@]1(O)O2` (some centres not stated), the “tumour outcome (control, treated, inhibition, significance)” value (Carcinogen: 7,12-DIMETHYLBENZ[A]ANTHRACENE, 57-97-6, Dose [Inhibitor]: 0, 85 NMOL IN 0.1 ML ACETONE 2/WK FOR 20 WK APPLIED 1 HR PRIOR TO EACH PROMOTER DOSE (STUDY DURATION: 21 WK), Route [Inhibitor]: DERMAL, Species: MOUSE, Strain/Sex: ICR/FEMALE, Target Tissue: Type of Lesion: SKIN: PAPILLOMA, Dose [Carcinogen]: 390 NMOL IN 0.1 ML ACETONE ONCE, Promoter: 12-O-TETRADECANOYLPHORBOL-13-ACETATE, 16561-29-8) is listed as 100%, 68%, 32%, p<0.05.
